Data on 3 compounds can be found in patent publication US7629382B2, “Use of tellurium containing compounds as nerve protecting agents” (BioMAS Ltd., priority 2003, dated 2009).

One data set relates to c-raf-1. Description: Activation of p21ras downstream effector c-raf-1. The conditions noted are these: cells incubated with AS101 for 15 minutes. It is filed as cell-based. An excerpt: (§1) The effect of AS101 on signaling pathways that are controlled by Ras superfamily GTPases was screened by parallel analysis of the activation of the Ras family GTPases and their effectors (FIG. 1). The primary methods used for studying activation of different Ras superfamily GTPases were: (a) pull down of activated Ras superfamily GTPases from cell lysates, by binding of the specific recombinant purified effector GTPase binding domains to the activated GTP bound form. Subsequent to the pull down of the activated GTPases, the proteins were detected and quantified by western blotting; (b) activation of GTPases effectors such as Raf or RAC, by reporter gene assays; and (c) direct immunoprecipitation kinase assays (FIG. 2).

Another data set deals with Erk. Description: Kinase assay of immunoprecipitated Erk with myelin basic protein as substrate. It is filed as cell-based. The conditions noted are these: Jurkat T cells or NIH3T3 cells. As for the experimental part:
NIH3T3 cells were incubated with AS101 for 10 minutes with or without famesyl transferase inhibitor.
Endogenous JNK and erk were immunoprecipitated from cell lysates with specific antibodies and their activities measured by using p^32 ATP and glutathione s-transferase (GST) e-jun or myelin basic protein (MPB) respectively, as the substrate. Samples were run on SDS-polyacrylamide gel electrophoresis gels and subjected to Phosphorlmager analysis.
as §1

The conditions of data set [1]: rats; intravenous and intramuscular administration; cited from earlier work.
The next data set has as its system p21waf. Put plainly: p21waf protein expression in PC12 cells (Western blotting). It is filed as cell-based. The conditions noted are these: for effect of pretreatment on p21waf protein expression induced by AS101: PC12 cells pretreated before AS101. As for the experimental part:
PC12 cells were washed in serum-free medium, resuspended to 1-5×10^6cells/ml. After 24 hours of incubation at 37° C. in culture, the cells were supplemented with 3 ml of medium (RPMI 1640 containing 10% FCS, 2% glutamine and 1 mg/ml G418 (Life Technologies, Inc.). After another 24 hours, cells were resuspended and maintained in the selection medium. After 3-4 weeks in selective medium, transfected cells were analyzed for via Western blotting. Results are expressed as percent p21 as compared to the negative (no drug) control.
PC12 cell extracts (20 μg/lane of protein) boiled under reducing conditions, were subjected to electrophoresis on 7.5 and 12.5% polyacrylamide gels and electro-transferred to nitrocellulose membranes. The membrane was blocked for one hour with 10% powdered milk in 0.2% Tween 20, Tris-buffered saline, and then incubated with the appropriate specific detecting antibodies. Immunoreactive proteins were detected with horseradish peroxidase-conjugated secondary antibodies (Amersham, Arlington Heights, Ill.) and a chemiluminescence reagent. For immunoprecipitation studies, immune complexes were precipitated with Protein A-Sepharose (Pharmacia) and, following electrophoresis, were blotted with anti-phosphoserine or anti-phosphotyrosine antibodies.

Data set [2] deals with PC12 cells expressing the dominant negative form (N17) of ras. Description: Neuronal differentiation of PC12 cells expressing dominant negative ras. It is filed as cell-based. As for the experimental part: (§2) To assess the neuroprotective effects of AS101, PC12 cells were maintained in Dulbecco's modified Eagle's medium supplemented with 8% heat inactivated horse serum, 8% heat inactivated fetal bovine serum, glutamine (5 mM) and 50 μg/ml gentamycin at 37° C.
The ras Asn-17 gene was then cloned into a mammalian expression vector. Transfection of PC12 cells with the plasmid DNA was performed with the calcium phosphate precipitation technique as described previously.

For data set [3], the system named is PC12 cells. Put plainly: Cell cycle distribution of PC12 cells (propidium iodide flow cytometry). It is filed as cell-based. Here is the method: as §2
Cell cycle distribution studies were performed as previously described. Cells were trypsinyzed and suspended for 10 minutes at room temperature at 1.106/ml buffer containing lmg/ml RNAse, 1% NP-40, 10 μg/ml propidium iodide and 0.1% sodium citrate. Propidium iodide fluorescence was measured using a FACStar plus flow cytometer equipped with an air-cooled argon laser delivering 15 mW of light at […]. The red fluorescence from 1.104 cells from each sample was collected through a 610 nm bandpass filter.
Background: Flow cytometry measures light scatter and fluorescence of single cells or particles in a stream.

A further data set addresses recombinant p21 ras (Homo sapiens, UniProt P01112). Description: Activation of recombinant p21ras by GDP/GTP exchange. It is filed as biochemical. The conditions noted are these: incubated 10 minutes. Here is the method:
AS101 (ammonium trichloro(dioxoethylene-O,O′)tellurate) was incubated with recombinant p21^ras for 10 minutes;
as §1
P21ras was cleaved by cyanogen bromide. This process yielded three fragments, each containing one cysteine residue: fragment 1 containing Cys51 (Mr 7,203); fragment 2 containing Cys60 (Mr 4,540) and fragment 3 containing Cys118 (Mr 6223). To confirm that Cys118 is the molecular target of AS101, a form of p21ras was generated identical to the wild type enzyme except that Cys118 is changed by a Ser residue (referred to as p21rasC118S). […] The stimulation by AS101 of nucleotide exchange on GDP-preloaded p21rasC118S in vitro was determined.

In data set [4] the test system is PC12 cells expressing a point mutation of Cys118 of P21ras. Put plainly: Neuronal differentiation of PC12 cells expressing Cys118 point mutation of p21ras. It is filed as cell-based.
The test system of data set [5] is PC12 cells. Put plainly: Neuronal differentiation of PC12 cells. It is filed as cell-based. Here is the method: as §2
For another data set, the system named is spinal cord injury. Description: Rat spinal cord injury model (weight-drop contusion). It is filed as in vivo. As for the experimental part: Twenty rats were divided into 4 treatment groups (control, AS101 15; 20; 30 μg). Experimental spinal cord injury (SCI) was induced via weight-drop contusion models that result in significant locomotor deficits, including lack of coordination and trunk stability. AS101 was applied topically to the damaged area and rats were treated for 21 days with AS101 administrated i.v. At the end of the first week following SCI, and on days 14 and 21, recovery was determined using Basso, Beattie and Bresnahan (BBB) locomotor scale score.

Data set [6] deals with PC12 cells. Put plainly: Detection of apoptosis in PC12 cells (NGF withdrawal). It is filed as cell-based. Here is the method:
as §2
The percentage of cells undergoing apoptosis was quantitatively determined using an Apoptosis Detection kit, on the basis of their ability to bind annexin V and exclude iodide, and also by an in situ cell detection kit incorporating HTC labeling and TUNEL.

SMILES strings stand for the structures. Several values for one entry are separate records, joined by “and”; a condition that tells them apart may be missing. Equal entries are not always repeated.

Chain of recombinant p21 ras (P01112 whole entry, species assumed): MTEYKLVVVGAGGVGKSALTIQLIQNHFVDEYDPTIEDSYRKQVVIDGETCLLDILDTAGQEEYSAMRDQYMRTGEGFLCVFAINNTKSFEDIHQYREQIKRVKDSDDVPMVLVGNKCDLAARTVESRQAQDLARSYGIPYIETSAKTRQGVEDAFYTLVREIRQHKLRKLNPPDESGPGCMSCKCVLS

For the compound `Cl[TeH]1(Cl)(Cl)OCCO1` [AS101, ammonium trichloro(dioxyethylene-O,O′)tellurate], in the data set with c-raf-1, the “activation of c-raf-1” value is on record as “could activate”. Besides, the “activation of ras and downstream effector Erk” value with Erk was “activated ras and its downstream effector, Erk”. Further, the “LD50 relative to immunologically effective dose” value in data set [1] is listed as 500-1000 folds. Also, in the data set on p21waf (PC12 cells, 24 h, dose-dependent), the p21waf protein expression entry was “pronounced increase”. Also, the differentiation result in data set [2] is “did not result in their differentiation”. Also, the G0/G1 was found to be 39.7% in the data set on PC12 cells [3] (AS101 0.1 μg/ml); 68.1% with PC12 cells [3] (AS101 0.5 μg/ml, 24 hours); 67.5% with PC12 cells [3] (AS101 1 μg/ml); 68% with PC12 cells [3] (NGF + anti NGF Ab + AS101). The G2/M was found to be 16.4% in the data set with PC12 cells [3] (AS101 0.1 μg/ml), 27.9% with PC12 cells [3] (AS101 0.5 μg/ml), 29% in the data set with PC12 cells [3] (AS101 1 μg/ml) and 27.6% in the data set on PC12 cells [3] (NGF + anti NGF Ab + AS101). The S was found to be 43.9% with PC12 cells [3] (AS101 0.1 μg/ml), 4.0% in the data set on PC12 cells [3] (AS101 0.5 μg/ml), 3.5% with PC12 cells [3] (AS101 1 μg/ml) and 4.4% in the data set on PC12 cells [3] (NGF + anti NGF Ab + AS101). Further, the “binding to and activation of p21 ras via GDP/GTP exchange” value at recombinant p21 ras was “directly binds to recombinant p21 ras and activates it via GDP/GTP exchange”. Moreover, in data set [4], the cellular differentiation entry was “did not result in cellular differentiation”. Further, in the data set on PC12 cells [5], the neuronal differentiation entry was “induced neuronal differentiation in a dose-dependent manner”. The “optimal doses for inducing neuronal differentiation” value with PC12 cells [5] was 0.5 µg/mL and 1 µg/mL. Also, the “reduction in body weight following injury” value in the data set on spinal cord injury is reported as “attenuated”. Besides, the mortality result is listed as “no mortality” in the data set with spinal cord injury (20 μg AS101 group, two deaths in control group) and “no mortality” in the data set with spinal cord injury (30 μg AS101 group, two deaths in control group). In addition, the “tolerability / adverse side effects” value in the data set on spinal cord injury (administration after spinal cord injury) is “well tolerated”. Further, the “BBB locomotor scale score (functional recovery)” value in the data set with spinal cord injury (high dose AS101, repeated administration, control 1±1.7) is on record as 3±2. Further, the deaths result with spinal cord injury (low dose group, two deaths in control group) was “one”. Moreover, in the data set with spinal cord injury (second and third weeks), the “therapeutic effect during second and third weeks of treatment” value is recorded as “no beneficial effect”. Further, the Apoptotic in the data set with PC12 cells [6] (AS101 0.1 μg/ml) is listed as 8.8%; in the data set with PC12 cells [6] (AS101 0.5 μg/ml), 5.3%; in the data set with PC12 cells [6] (AS101 1 μg/ml), 6.6%.

For the compound `COC(=O)[C@H](CCSC)NC(=O)c1ccc(NC[C@@H](N)CS)cc1-c1ccccc1` [farnesyl transferase inhibitor], in the data set on p21waf, the “effect of pretreatment on p21waf protein expression induced by AS101” value is given as “abolished”.

Regarding `COc1cccc(-c2cc(=O)c3ccccc3o2)c1N` [PD98059], in the data set with p21waf, the “effect of pretreatment on p21waf protein expression induced by AS101” value is given as “abolished”.
